Reference: patent publication US20260132152A1, “SOLID FORMS OF AN ORALLY-DELIVERED BETA-LACTAMASE INHIBITOR AND USES THEREOF” (Venatorx Pharmaceuticals, Inc., priority 2019, published 2026)
≈ marks a conversion by molar mass, not a printed value. Like-named read-outs stand apart in the source and are kept apart here.

How the values were obtained:
Format in all cases: physicochemical
[1] = Exposure to elevated RH (75%, 85%, 97%) at room temperature
Protocol: Samples of Compound 1-ethanolate Form A were exposed to elevated RH (75%, 85% and 97%) at room temperature for approximately 3 hours and 24 hours (Table 8).

[2] = Solvent-mediated interconversion slurries with seeds of Form A and Form B; settings: slurries in 3% DCM in heptane and 5% EtOH in heptane, room temperature, ~2 weeks, XRPD
Protocol: Saturated solutions of Compound 1-ethanolate were prepared in 3% DCM in heptane and 5% EtOH in heptane.
Approximately equal amounts of Form A, and Form B (containing a minor amount of Form A) were added to the filtered saturated solutions, and the suspensions were slurried at room temperature for ˜2 weeks, and the isolated solids were observed by polarized light microscopy (PLM) and analyzed by XRPD.

[3] = Separate DVS analysis with stepped increase in relative humidity, 0% RH to 60% RH, 4 h per step, then XRPD
Protocol: A second set of DVS experiments were conducted using a stepped method from 0% RH to 60% RH with steps of 10% RH and four hours of equilibration at each humidity value. […] The samples were placed on an aluminum holder and allowed to equilibrate at 0% RH before starting the following predefined humidity program; hold for 4 h at 0% RH, increase humidity by a step of 10% RH, hold for 4 h. repeat the above two steps five times until a value of 60% RH has been reached. The samples were then analyzed for crystallinity using the second set of XRPD conditions.

[4] = Dynamic vapor sorption (DVS) analysis, 5% RH to 95% RH and back to 5% RH at 10% RH increments
Protocol: Moisture sorption/desorption data were collected on a VTI SGA-100 Vapor Sorption Analyzer. NaCl and PVP were used as calibration standards. Samples were not dried prior to analysis. Sorption and desorption data were collected over a range from 5% to 95% RH at 10% RH increments under a nitrogen purge (RH=relative humidity). The equilibrium criterion used for analysis was less than 0.0100% weight change in 5 minutes with a maximum equilibration time of 3 hours. Data were not corrected for the initial moisture content of the samples.
DVS analysis of Compound 1-ethanolate Form A was conducted from 5% relative humidity (RH) to 95% RH and back to 5% RH at 10% RH increments (FIG. 7). […] A loss of 1.8 wt % was observed between 55% RH and 65% RH possibly due to water displacing ethanol. After 65% RH, the sample gained 3.8 wt % between 65% RH and 95% RH. […] Weight loss (˜7.6 wt %) was observed between 95% RH and 5% RH (i.e., desorption). After DVS analysis, it was noted that the sample had deliquesced.
DVS analysis of Compound 1-ethanolate Form B (with minor Form A) was conducted from 5% RH to 95% RH and back to 5% RH at 10% RH increments (FIG. 12). The DVS isotherm of Form B is qualitatively similar to that of Form A. Form B lost 0.2 wt % upon equilibration at ˜5% RH. […] A weight loss of 1.1% was observed between 45% RH and 55% RH, possibly due to the displacement of the ethanol with water. After 55% RH, the sample gained 3.3 wt % between 55% RH and 95% RH. […] Weight loss (˜5.8 w1%) was observed during desorption from 95% RH to 5% RH.

[5] = Visual solubility estimates by aliquot addition at ambient temperature
Protocol: Visual solubility estimates for Compound 1-ethanolate Form A were determined in a variety of solvents and solvent mixtures using an aliquot addition method to aid in experimental design.

Structure (SMILES): CCOB1Oc2c(cccc2C(=O)OCOC(=O)C(CC)CC)C[C@@H]1NC(=O)CC [Compound 1-ethanolate Form A, ((2-ethylbutanoyl)oxy)methyl (R)-2-ethoxy-3-propionamido-3,4-dihydro-2H-benzo[e][1,2]oxaborinine-8-carboxylate]
- Observation on exposure to elevated RH ([1]; 75% RH, after 3 hours): no deliquescence
- Observation on exposure to elevated RH ([1]; 75% RH, after 24 hours): began deliquescing
- Observation on exposure to elevated RH ([1]; 85% RH, after 3 hours): appeared wet with solids present
- Observation on exposure to elevated RH ([1]; 85% RH, after 24 hours): deliquesced
- Observation on exposure to elevated RH ([1]; 97% RH, after 3 hours): deliquescence was observed
- Observation on exposure to elevated RH ([1]; 97% RH, after 24 hours): deliquesced
- Thermodynamically stable polymorph [2]: the stable form at room temperature
- Thermodynamically stable polymorph ([2]; listed as Polymorph form A): thermodynamically stable
- Mass change in stepped DVS ([3]; at humidities higher than 40% RH, loss of ethanol from the boronate ester complex): a decrease in mass was observed
- Mass increase in stepped DVS ([3]; from 0% RH to 40% RH): 0.3 wt, -%
- Retention of crystal structure (XRPD after stepped DVS) ([3]; up to 60% r.h.): retained its predominant crystal structure for at least four hours
- State of sample after DVS analysis ([4]; after 5-95-5% RH cycle): deliquesced
- Weight loss in DVS (desorption) ([4]; between 95% RH and 5% RH): ~7.6 wt %
- Weight % chg ([4]; desorption, elapsed 731.2 min, sample RH 85.19%, 25.19 °C): 0.633%
- Weight % chg ([4]; desorption, elapsed 918.9 min, sample RH 74.98%, 25.19 °C): −0.694%
- Weight % chg ([4]; desorption, elapsed 1106.5 min, sample RH 65.14%, 25.19 °C): −1.716%
- Weight % chg ([4]; desorption, elapsed 1296.4 min, sample RH 54.99%, 25.19 °C): −2.592%
- Weight % chg ([4]; desorption, elapsed 1483.9 min, sample RH 45.11%, 25.19 °C): −3.308%
- Weight % chg ([4]; desorption, elapsed 1671.4 min, sample RH 35.03%, 25.19 °C): −3.916%
- Weight % chg ([4]; desorption, elapsed 1859.0 min, sample RH 25.06%, 25.19 °C): −4.432%
- Weight % chg ([4]; desorption, elapsed 2044.7 min, sample RH 14.87%, 25.19 °C): −4.883%
- Weight % chg ([4]; desorption, elapsed 2228.6 min, sample RH 5.67%, 25.19 °C): −5.275%
- Hygroscopicity ([4]; from 5-55% RH): non-hygroscopic
- Weight gain in DVS ([4]; sorption, between 5% RH and 55% RH): ~0.3 wt %
- Weight loss in DVS ([4]; sorption, between 55% RH and 65% RH, possibly water displacing ethanol): 1.8 wt %
- Weight gain in DVS ([4]; sorption, between 65% RH and 95% RH): 3.8 wt %
- Weight % chg ([4]; sorption, elapsed 21.1 min, sample RH 5.15%, 25.19 °C): −0.043%
- Weight % chg ([4]; sorption, elapsed 39.7 min, sample RH 14.86%, 25.19 °C): −0.003%
- Weight % chg ([4]; sorption, elapsed 51.8 min, sample RH 24.90%, 25.20 °C): 0.051%
- Weight % chg ([4]; sorption, elapsed 64.8 min, sample RH 34.83%, 25.19 °C): 0.120%
- Weight % chg ([4]; sorption, elapsed 78.3 min, sample RH 44.87%, 25.19 °C): 0.214%
- Weight % chg ([4]; sorption, elapsed 91.2 min, sample RH 54.86%, 25.18 °C): 0.316%
- Weight % chg ([4]; sorption, elapsed 281.1 min, sample RH 65.03%, 25.18 °C): −1.494%
- Weight % chg ([4]; sorption, elapsed 294.7 min, sample RH 74.65%, 25.20 °C): −1.170%
- Weight % chg ([4]; sorption, elapsed 356.0 min, sample RH 84.85%, 25.19 °C): 0.451%
- Weight % chg ([4]; sorption, elapsed 543.7 min, sample RH 94.83%, 25.19 °C): 2.311%
- Weight % chg ([4]; start, elapsed 0.1 min, sample RH 0.99%, 25.18 °C): 0.000%
- solubility ([5]; Cyclohexane): <1 mg/mL
- solubility ([5]; Heptane): <1 mg/mL
- solubility ([5]; organic solvent or mixture, thermodynamic from solid, ACN, read-out: Solubility): > 66 mg/mL
- solubility ([5]; organic solvent or mixture, thermodynamic from solid, Acetone, read-out: Solubility): 34 mg/mL (≈ 81.1 mM)
- solubility ([5]; organic solvent or mixture, thermodynamic from solid, Anisole, read-out: Solubility): 35 mg/mL (≈ 83.5 mM)
- solubility ([5]; organic solvent or mixture, thermodynamic from solid, Chloroform, read-out: Solubility): 36 mg/mL (≈ 85.9 mM)
- solubility ([5]; organic solvent or mixture, thermodynamic from solid, Cyclohexane, read-out: Solubility): < 1 mg/mL
- solubility ([5]; organic solvent or mixture, thermodynamic from solid, Cyclohexane:EtOAc 3:1 by volume, read-out: Solubility): 4 mg/mL (≈ 9.54 mM)
- solubility ([5]; organic solvent or mixture, thermodynamic from solid, Cyclohexane:EtOH 90:10 by volume, read-out: Solubility): 17 mg/mL (≈ 40.5 mM)
- solubility ([5]; organic solvent or mixture, thermodynamic from solid, DCM, read-out: Solubility): 34 mg/mL (≈ 81.1 mM)
- solubility ([5]; organic solvent or mixture, thermodynamic from solid, DMF, read-out: Solubility): > 63 mg/mL
- solubility ([5]; organic solvent or mixture, thermodynamic from solid, DMSO, read-out: Solubility): > 71 mg/mL
- solubility ([5]; organic solvent or mixture, thermodynamic from solid, Diethyl Ether, read-out: Solubility): 9 mg/mL (≈ 21.5 mM)
- solubility ([5]; organic solvent or mixture, thermodynamic from solid, EtOAc, read-out: Solubility): > 68 mg/mL
- solubility ([5]; organic solvent or mixture, thermodynamic from solid, EtOH, read-out: Solubility): > 68 mg/mL
- solubility ([5]; organic solvent or mixture, thermodynamic from solid, Heptane, read-out: Solubility): < 1 mg/mL
- solubility ([5]; organic solvent or mixture, thermodynamic from solid, Heptane:MEK 2:1 by volume, read-out: Solubility): 22 mg/mL (≈ 52.5 mM)
- solubility ([5]; organic solvent or mixture, thermodynamic from solid, IPA, read-out: Solubility): 34 mg/mL (≈ 81.1 mM)
- solubility ([5]; organic solvent or mixture, thermodynamic from solid, IPOAc, read-out: Solubility): > 66 mg/mL
- solubility ([5]; organic solvent or mixture, thermodynamic from solid, MEK, read-out: Solubility): 37 mg/mL (≈ 88.2 mM)
- solubility ([5]; organic solvent or mixture, thermodynamic from solid, MTBE, read-out: Solubility): 22 mg/mL (≈ 52.5 mM)
- solubility ([5]; organic solvent or mixture, thermodynamic from solid, Nitromethane, read-out: Solubility): > 68 mg/mL
- solubility ([5]; organic solvent or mixture, thermodynamic from solid, TFE, read-out: Solubility): > 66 mg/mL
- solubility ([5]; organic solvent or mixture, thermodynamic from solid, THF, read-out: Solubility): > 64 mg/mL
- solubility ([5]; organic solvent or mixture, thermodynamic from solid, Toluene, read-out: Solubility): 33 mg/mL (≈ 78.7 mM)
- solubility ([5]; organic solvent or mixture, thermodynamic from solid, Xylene, read-out: Solubility): 17 mg/mL (≈ 40.5 mM)
